{
  "source": "patent US20110229559A1",
  "about": "“Drug Release From Nanoparticle-Coated Capsules” (University of South Australia, priority 2006, published 2011)",
  "key": {"[1]": {"assay": "DBP release from liquid PDMS emulsion droplets (bare or silica nanoparticle-coated) into MilliQ water, sink conditions", "assay_type": "physicochemical", "details": "for release rate constant (interfacial transport): hydrophobic nanoparticle-coated liquid PDMS droplets; for activation energy (Ea) for crossing the interfacial barrier: liquid PDMS droplets, Arrhenius, 22-37° C.", "experimental": "FIG. 7 is a graph of Ln (1−Mt/M0) versus time for DBP release profiles from hydrophobic nanoparticle-coated liquid PDMS emulsion (φ=0.01) containing 0.025 wt % DBP, 900 ml MQ water as dissolution medium, where […]10^−3M NaCl; ⋄10^−2 M NaCl; Δ10^−1 M NaCl;\nFIG. 8 is a graph showing Arrhenius plots for DBP release profiles from hydrophobic coated liquid PDMS emulsion droplets (φ=0.01) containing 0.025 wt % DBP, 900 ml MQ water as dissolution medium, where […]10^−1 M NaCl; ⋄10^−3M NaCl;\nIn experiments, dibutylphthalate (DBP) was chosen as a model drug because it is a liquid that is poorly soluble but readily miscible with PDMS. Release profiles of DBP were determined from both bare droplets (i.e. droplets not coated with nanoparticles) and coated droplets (i.e. droplets coated with hydrophilic particles and from droplets coated with hydrophobic particles).\n(§1) DBP was incorporated into the PDMS droplets during the synthesis step outlined in Example 3. A modification of the method reported by Obey, T. M. and Vincent, B., (1994), Journal of Colloid Interface Science, 163:454-463 and Goller, M. I. et al., (1997), Physiochemical and Engineering Aspects, 123-124 and 183-193 (without dialysis) was employed (herein incorporated by reference). PDMS droplets were prepared according to Example 3. A further batch of cross-linked PDMS droplets were prepared using the same procedure as for liquid droplets except that the mixtures of monomer and cross-linking trimer DEDMS:TEMS (tritethoxymethylsilane) at ratios 1:0.1-1 were used instead of pure monomer. The cross-linking level of the droplets prepared ranged from 0, 10, 20, 30, 40 to 50%.\n(§2) Bare and nanoparticle-coated droplet samples were prepared by mixing 10 ml of the prepared emulsions with 10 ml of sonicated MilliQ water and silica aqueous dispersions, respectively. Salt concentrations were adjusted from between 10^−4 to 10^−1 M NaCl in order to control the nanoparticle layer structure as described above.\nThe release rate is even more retarded in the presence of a thick interfacial particle wall prepared at 10^−1 M NaCl. Thus, depending on salt concentration, hydrophobic silica nanoparticle coatings can provide a permeable or semi-permeable barrier.\nThe activation energy for crossing the interfacial barrier was determined using an Arrhenius approach. Release profiles for droplets coated at 10^−3 M NaCl and 10^−1 M NaCl were determined at four temperatures: 22° C., 27° C., 32° C. and 37° C. Kinetic rate constants were determined for each temperature from equation A above and from the plots Ln k vs. 1/T (FIG. 8) the activation energies (Ea) were calculated:\nAqueous solutions containing 1% diethoxy-dimethyl-silane (DEDMS), which was previously mixed with 0, 0.025, 0.1 and 0.25 wt % DBP in a nitrogen gas atmosphere, and 0.1% ammonia were sealed under nitrogen gas in a 250 ml reaction vessel, shaken vigorously for 30 seconds, and than tumbled at 30 rpm and 25° C. for 18 hours."}, "[2]": {"assay": "DBP release from cross-linked PDMS emulsion droplets (bare or silica nanoparticle-coated) into MilliQ water", "assay_type": "physicochemical", "experimental": "(§3) FIG. 12 is a graph showing DBP release profiles from cross-linked PDMS emulsion droplets (φ=0.01) containing 0.025 wt % DBP, 900 ml MQ water as dissolution medium, where ⋄ bare PDMS droplets and PDMS droplets coated by hydrophobic silica nanoparticles: […]10^−4M NaCl; Δ10^−3M NaCl; ◯10^−1 M NaCl;\nas §3, with “FIG. 13” for “FIG. 12”, “showing Ln ([…]) versus time for drug” for “showing DBP”, “where ◯” for “where ⋄”, “silica nanoparticles;” for “silica nanoparticles:”\nas §3, with “15” for “12”, “0.25” for “0.025”, “DBP in emulsions,” for “DBP,”, “[…]10^−4 M” for “[…]10^−4M”, “Δ10^−3 M” for “Δ10^−3M”\nas §1, §2\nCross-linked droplets (40% cross-linked) were chosen for study due to the fact that DBP partitioning coefficients were the highest at this cross-linking level, i.e. entrapment of DBP was the highest. […] Hydrophilic silica nanoparticle-coated capsules (created at 10^−2 M NaCl) and permeable, hydrophobic silica nanoparticle-coated capsules (created at 10^−4 M NaCl) have no effect on drug dissolution as opposed to semi-permeable hydrophilic/hydrophobic silica nanoparticle coatings around capsules (created at 10^−3-10^−1 M NaCl).\nThe rate limiting step for drug release from bare cross-linked droplets is diffusion through the internal matrix, therefore the diffusion-limited model is applicable (FIG. 12). Good linear fits were obtained for the first 120 minutes of release (FIG. 13). Calculated diffusion coefficients are presented in the table of FIG. 14 and are in agreement with typical values for drug diffusion in gels (e.g. 4.8 to 6.5 nm^2s^−1)."}, "[3]": {"assay_type": "physicochemical", "experimental": "FIG. 10 is a graph showing DBP release profiles in 900 ml MQ water: pure DBP added: 1.1 mg/100 ml and DBP 0.1% wt in PDMS emulsion droplets (φ=0.01), where ⋄ bare liquid PDMS droplets; □ pure DBP; Δ pure DBP with hydrophilic silica nanoparticles; ◯ pure DBP with hydrophobic silica nanoparticles; * PDMS droplets coated by hydrophilic silica (10^−2 M NaCl); x PDMS droplets coated by hydrophobic silica nanoparticles (10^−4 M NaCl); + PDMS droplets coated by hydrophobic silica nanoparticles (10^−1 M NaCl); the dotted line corresponds to the maximal DBP concentration that can be achieved in the dissolution medium;\nFIG. 11 is a graph of DBP release profiles in 900 ml MQ water, pure DBP added: 2.8 mg/100 ml and DBP (0.25% wt) in PDMS emulsion droplets (φ=0.01): ⋄ bare liquid PDMS droplets; □ pure DBP; Δ pure DBP with hydrophilic silica nanoparticles; ◯ pure DBP with hydrophobic silica nanoparticles; * PDMS droplets coated by hydrophilic silica nanoparticles (10^−2 M NaCl); x PDMS droplets coated by hydrophobic silica nanoparticles (10^−4 M NaCl); + PDMS droplets coated by hydrophobic silica nanoparticles (10-1 M NaCl); dotted line correspond to the maximal DBP concentration that can be achieved in the dissolution medium;\nHowever, the dissolution rate is increased when DBP is incorporated into PDMS emulsion droplets.\nSimilar trends of increased solubility rate occur when the total DBP concentration is well above the solubility limit (2.8 mg/100 ml) (FIG. 11). The observed increase in solubility of DBP is even more evident giving rise to supersaturated solutions. The intensity and duration of the “supersaturation” effect is much more pronounced for hydrophobic silica coated droplets. For hydrophilic particles, the peak in the soluble DBP concentration is at a maximum after 2 hours and then subsequently the soluble amount of DBP decreases within the next 6 hours and eventually reduces back to the solubility limit (FIG. 11)."}},
  "data": [
    {"smiles": "CCCCOC(=O)c1ccccc1C(=O)OCCCC", "note": "[DBP, dibutylphthalate]", "values": [
      {"measurement": "drug release from within the bare droplets", "setting": "[1]; bare liquid PDMS droplets, drug concentration significantly below its solubility limit in water", "result": "rapid and complete"},
      {"measurement": "release rate constant (interfacial transport)", "setting": "[1]; at 10^-1 M NaCl", "result": 0.05, "unit": "nm^2s^-1"},
      {"measurement": "release rate constant (interfacial transport)", "setting": "[1]; at 10^-3 and 10^-2 M NaCl", "result": 0.3, "unit": "nm^2s^-1"},
      {"measurement": "half release time", "setting": "[1]; liquid PDMS droplets coated with hydrophobic silica nanoparticles at 10^-3 and 10^-2 M NaCl, 0.025 wt % DBP", "result": "approximately 18 hours"},
      {"measurement": "activation energy (Ea) for crossing the interfacial barrier", "setting": "[1]; nanoparticle layer prepared at 10^-1 M NaCl", "result": 630, "unit": "kJmol^-1"},
      {"measurement": "activation energy (Ea) for crossing the interfacial barrier", "setting": "[1]; nanoparticle layer prepared at 10^-3 M NaCl", "result": 580, "unit": "kJmol^-1"},
      {"measurement": "activation energy for drug diffusion", "setting": "[2]; bare cross-linked droplets", "result": "127±15", "unit": "kJmol^-1"},
      {"measurement": "time for release process to reach equilibrium", "setting": "[2]; cross-linked PDMS droplets, 0.025 wt % DBP", "result": "approximately 2 hours"},
      {"measurement": "activation energy for drug diffusion", "setting": "[2]; cross-linked droplets with hydrophobic silica nanoparticle coating, first value given", "result": 155, "unit": "kJmol^-1"},
      {"measurement": "diffusion coefficient", "setting": "[2]; cross-linked droplets with hydrophobic silica nanoparticle coating, first value given (salt level not stated, presumably 10^-3 M NaCl)", "result": 3.2, "unit": "nm^2s^-1"},
      {"measurement": "activation energy for drug diffusion", "setting": "[2]; cross-linked droplets with hydrophobic silica nanoparticle coating, second value given", "result": "177±25", "unit": "kJmol^-1"},
      {"measurement": "diffusion coefficient", "setting": "[2]; cross-linked droplets with hydrophobic silica nanoparticle coating, second value given (salt level not stated, presumably 10^-1 M NaCl)", "result": "2.4±0.5", "unit": "nm^2s^-1"},
      {"measurement": "diffusion coefficient", "setting": "[2]; cross-linked droplets, DBP concentration above the solubility limit (0.25 wt %), first 90 minutes", "result": "3.5±0.5", "unit": "nm^2s^-1"},
      {"measurement": "amount of DBP loaded still remaining in the droplets after 2 hours", "setting": "[2]; cross-linked droplets, bare and coated with permeable silica nanoparticle coatings at 10^-4 M NaCl", "result": 25, "unit": "%"},
      {"measurement": "amount of DBP loaded still remaining in the droplets after 2 hours", "setting": "[2]; cross-linked droplets, silica coating at 10^-1 M NaCl", "result": 46, "unit": "%"},
      {"measurement": "amount of DBP loaded still remaining in the droplets after 2 hours", "setting": "[2]; cross-linked droplets, silica coating at 10^-3 M NaCl", "result": 37, "unit": "%"},
      {"measurement": "time after which amount in solution reduces to the normal solubility limit (duration of supersaturation)", "setting": "[3]", "result": 10, "unit": "h"},
      {"measurement": "time of peak soluble DBP concentration", "setting": "[3]", "result": 2, "unit": "h"},
      {"measurement": "time to achieve the equilibrium solubility level", "setting": "[3]", "result": "approximately 20 hours"}
    ]}
  ]
}
